Assay results as given in US6992064B2, “N-alkylglycine trimeres capable of protecting neurons against excitotoxic aggressions and compositions containing such trimeres” (Diverdrugs, S.L., priority 2000, dated 2006).

Columns and labels:
[1] = test system: ammonium-induced neurotoxicity in mice; test: Neurotoxicity model in mice induced by injection of high doses of ammonium (death due to NMDA receptor hyperactivation); type: in vivo; details: 0.05–0.1 mg/g intraperitoneal, 10 minutes before 12 mmol/kg ammonium acetate; 24 hours post-injection
Experimental: A neurotoxicity model was used on mice induced by the injection of high doses of ammonium, the result of which is the death of the animal due to the hyperactivation of the NMDA receptor. The test consists in the intraperitoneal injection in mice of an amount of N-alkylglycine trimere of 0.05–0.1 mg/g, followed, after 10 minutes, with an injection of 12 mmol/kg of ammonium acetate. After 24 hours post-injection, the number of dead mice was determined. The N-alkylglycine trimere identified as compound [24] protected 82% of the mice, whilst the N-alkylglycine trimere identified as compound [23a] protected 100% of the animals.

[2] = test system: primary cultures of rat cerebellum neurones; test: Neuroprotection of primary cultures of rat cerebellar neurones against excitotoxic aggression (L-glutamate/glycine); type: cell-based; details: for decrease of neuronal death: rat cerebellar neurones, 10 μM glycine, prolonged (≧3 h) L-glutamate, read 24 hours post-aggression; for neuroprotector activity (enantiomers versus racemic mixture): primary cultures of cerebellar neurons, L-glutamate 1 mM
Excerpt: The neuroprotector mechanism implies, at least in part, the blocking of the glutamate ionotropic receptors, as is made manifest by the inhibition of the ionic current activated by the NMDA type of glutamatergic receptor agonist expressed in X. laevis ovocites (19,20). An important advantage of these biological tests is that they permit the search for neuroprotectors in functionally active systems, increasing the potentiality of its in vivo use.
Two complementary biological tests were used in order to evaluate the biological activity of the N-alkylglycine trimeres obtained in Example 1.1. The first evaluates the efficiency and power with which said compounds block the ionic current activated by agonists in X. laevis ovocites that express the NMDA receptor. The second, determines the neuroprotector efficiency of the N-alklyglycine trimeres in primary cultures of neurones subjected to an excitotoxic aggression, such as prolonged exposure to L-glutamate and glycine.
It was also observed that the N-alkylglycine trimeres tested protected primary neuronal cultures coming from the cerebellum of rats pre-exposed to 10 μM glycine versus the prolonged exposure (≧3 h) of L-glutamate or N-methyl-D-aspartate at a concentration of […]. The test consists of extracting the cerebellar neurones of baby rats, 7–8 days old, cultivating them in plates in a culture medium supplemented with bovine foetal serum (22). After 13–19 days under culture, the excitotoxic aggression with L-glutamate is performed, monitoring the neuronal death in the absence and presence of the N-alkylglycine trimeres 24 hours post-aggression using two fluorescent dyes: the fluorescent diacetate that indicates the number of viable cells, and the propydium iodine that informs of the number of dead cells (23). As an example, the N-alkylglycine trimere identified as compound [1] decreased a 95% of the neuronal death at a concentration of 30 μg/ml; compound [5] an 85% at 30 μg/ml; compound [23a] a 57% at a concentration of 50 μg/ml, and compound [24] a 60% at 50 μg/ml.
On the other hand, due to the fact that some formula I N-alkylglycine trimeres may be presented as stereoisomers, the possibility that the neuroprotector activity of the racemic mixture preferably corresponded to one of the isomers, was evaluated. For this, the neuroprotector activity of the enantiomers identified as [23b] and [23c] was evaluated, (see Table 1) in primary cultures of cerebellar neurons exposed to excitotoxic aggression, such as the incubation with L-glutamate 1 mM comparing it with the neuroprotector activity of a racemic mixture of said enantiomers. […] Likewise, said power was similar to the one presented by the racemic mixture.

## CCC(C)N(CC(N)=O)C(=O)CN(C(=O)CNCCN1CCCC1)C1CC1 (racemic) [compound [23a], [N-[2-(N-pyrrolidinyl)ethyl]glycyl]-[N-(cyclopropyl)glycyl]-N-((R,S)-sec-butyl)glycinamide]
[1]
  mice protected from death: 100%
[2]; 50 μg/ml
  decrease of neuronal death: 57%

## CC[C@@H](C)NC(=O)CN(C(=O)CNCCN1CCCC1)C(=O)CNC1CC1 [[23b], [N-[2-(N-pyrrolidinyl)ethyl]glycyl]-[N-(cyclopropyl)glycyl]-N-((R)-sec-butyl)glycinamide]
[2]
  neuroprotector activity (enantiomers versus racemic mixture): neuroprotectors with equal power

## CC[C@H](C)NC(=O)CN(C(=O)CNCCN1CCCC1)C(=O)CNC1CC1 [[23c], [N-[2-(N-pyrrolidinyl)ethyl]glycyl]-[N-(cyclopropyl)glycyl]-N-((S)-sec-butyl)glycinamide]
[2]
  neuroprotector activity (enantiomers versus racemic mixture): neuroprotectors with equal power

## CCN(CC)CCCN(CC(=O)N(CCNC(C)=O)CC(N)=O)C(=O)CNCCC(c1ccccc1)c1ccccc1 [compound [1]] [[N-[3,3-diphenylpropyl]glycyl]-[N-[3-(N,N-diethylamine)propyl]glycyl]-N-[2-(methylcarbonylamine)ethyl]glycinamide]
[2]; 30 μg/ml
  decrease of neuronal death: 95%

## CCN(CC)CCCN(CC(=O)N(CCNC(C)=O)CC(N)=O)C(=O)CNCCC(c1ccccc1)c1ccccc1 [compound [5]] [[N-[3,3-diphenylpropyl]glycyl]-[N-[3-N,N-diethylamine)propyl]glycyl]-N-[2-(methylcarbonylamine)ethyl]glycinamide]
[2]; 30 μg/ml
  decrease of neuronal death: 85%
